Reference: PMC3724763 (Journal of medicinal chemistry, 2013)

Target: T1, JHDM1A (Homo sapiens, UniProt Q9Y2K7)
T1 sequence (Q9Y2K7 1-517): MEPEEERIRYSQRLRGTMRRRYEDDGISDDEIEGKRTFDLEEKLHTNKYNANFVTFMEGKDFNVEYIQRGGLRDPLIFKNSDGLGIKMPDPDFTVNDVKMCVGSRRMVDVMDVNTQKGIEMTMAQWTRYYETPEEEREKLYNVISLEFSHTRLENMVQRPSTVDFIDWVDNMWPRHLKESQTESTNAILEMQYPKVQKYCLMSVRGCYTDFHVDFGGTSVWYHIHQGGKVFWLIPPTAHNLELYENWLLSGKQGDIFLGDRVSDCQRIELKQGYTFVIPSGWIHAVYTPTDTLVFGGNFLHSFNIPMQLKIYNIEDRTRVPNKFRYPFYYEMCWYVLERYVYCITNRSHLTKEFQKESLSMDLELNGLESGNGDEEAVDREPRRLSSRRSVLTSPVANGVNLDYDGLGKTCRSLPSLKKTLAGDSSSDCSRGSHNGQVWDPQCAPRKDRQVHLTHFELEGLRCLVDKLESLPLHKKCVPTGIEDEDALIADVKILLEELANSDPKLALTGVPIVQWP
Assay: FP competitive binding assay with tracer 3 and JHDM1A
Details: 60 nM JHDM1A, 1 nM 3, Ni2+ buffer, 4 h

Row | Structure (SMILES) | displacement of tracer 3 from JHDM1A
1 | O=C(O)CNC(=O)C(=O)O [NOG, N-oxalyl glycine] | can displace 3 from JHDM1A
2 | O=C(O)/C=C/C(=O)N(O)CCCCNCc1ccc(COC(=O)Nc2cccc3ccccc23)cc1 [Compound 2, methylstat acid] | can displace 3 from JHDM1A
3 | O=C(O)CCC(=O)C(=O)O [αKG, α-ketoglutarate] | can displace 3 from JHDM1A
